From patent publication US20240002401A1, “IMIDAZOTHIAZOLE COMPOUNDS, PHARMACEUTICAL COMPOSITIONS, AND USES THEREOF” (GUANGZHOU HENOVCOM BIOSCIENCE CO., LTD., priority 2020, published 2024)

Assays:
ATX = ATX (Homo sapiens, UniProt Q13822); test: Enzyme activity screening in vitro with LPC as substrate (Amplex Red fluorescence); type: biochemical; settings: inhibitory activity against ATX
From the text: Analysis In Vitro: LPC was Used as Substrate for Screening Enzyme Activity
Principle: Lysophosphatidylcholine (LPC) as substrate is hydrolyzed by using the activity of lysoPLD enzyme, to produce lysophosphatidic acid (LPA) and choline, which is oxidized to produce H2O2 under the action of choline oxidase. In presence of horse radish peroxidase (HPR), Amplex Red reagent is reacted with H2O2 in a quantitative chemistry ratio of 1 to 1, to produce strong fluorescence products, which are detected by a fluorescent quantitative test.
20 μl of the above mixed solution 1 was added to each hole of an experiment board, […]. The compounds diluted with DMSO were transferred into an experiment board with Echo550. The reaction buffer solution was used for preparing a mixed solution 2 of […] LPC and 400 μM Amplex Red in a final concentration. 20 μl of the above mixed solution 2 was added to each hole of the experiment board. After addition, the experiment board was shook for 30 seconds on a shaker, and incubated for 30 minutes. Envision was used to read the fluorescence signals with an exciting light at 530 nm and emitted light at 590 nm.

[1] = Pharmacokinetics test in mice; type: in vivo; settings: male SD mice; for F: absolute bioavailability, oral 5 mg/kg vs intravenous 1 mg/kg; for AUC / half-life: mouse, plasma
From the text: Pharmacokinetics Test in Mice
Male SD mice were selected for pharmacokinetics test study, plasma concentration at different time points were quantitatively determined by LC/MS/MS method after the mice were intravenously injected and orally administrated with the compounds to be tested, thereby evaluating pharmacokinetics characteristic of the compounds to be tested in SD mice.
SD mice (free food and drink, 6 to 8 weeks old) were intravenously administrated via a foot injection with a clear solution of the compounds to be tested, alternatively, SD mice (free food and drink, 6 to 8 week old) were intragastrically administrated with a suspension of the compounds to be tested. Blood samples were collected from the tail veins of the mice 0.083, 0.25, 0.5, 1, 2, 4, 6, 8, 10, and 24 hours after administration, and each sampling was 0.15 mL. All collected blood samples were placed into centrifuge tubes with EDTA-K2, turned upside and down to mix the anticoagulant with the blood well. The plasma was separated by centrifugation at 1500 g for 10 min at 4° C. within […]. The plasma sample was transferred into a new centrifuge tube and stored at −90° C. to −60° C. until the analysis was performed. LC-MS/MS was used to measure the blood concentration of the compounds to be tested of the present disclosure, and the pharmacokinetic parameters, as well as absolute bioavailability, were calculated by a non-compartment model in Pharsight Phoenix 8.0 software, as shown in Table 2.

[2] = Intravenous injection (1 mg/kg)

SMILES	IC50 (ATX) [nM]	F [1] [%]	AUC [1, 2] [ng·h/mL]	half-life [1, 2] [h]	AUC ([1]; Oral administration (5 mg/kg)) [ng·h/mL]	half-life ([1]; Oral administration (5 mg/kg)) [h]
[2H]C([2H])([2H])C([2H])([2H])N(c1nc(-c2ccc(F)cc2)c(C#N)s1)c1c(CC)nc2sc(C3CCN(CC(=O)N4CC(O)C4)CC3)cn12 [Embodiment 7, 2-((ethyl-d5)(6-ethyl-2-(1-(2-(3-hydroxyazetidin-1-yl)-2-oxoethyl)piperidin-4-yl)imidazo[2,1-b]thiazol-5-yl)amino)-4-(4-fluorophenyl)thiazole-5-carbonitrile]	0.01 to 100	65	1480	3.97	4810	2.81
CCc1nc2sc(C3CCN(CC(=O)NCC(F)F)CC3)cn2c1N(CC)c1nc(-c2ccc(F)cc2)c(C#N)s1 [Embodiment 11, 2-(4-(5-((5-cyano-4-(4-fluorophenyl)thiazol-2-yl)(ethyl)amino)-6-ethylimidazo[2,1-b]thiazol-2-yl)piperidin-1-yl)-N-(2,2-difluoroethyl)acetamide]	0.01 to 100	42	907	4.69	1730	4.4
CCc1nc2sc(C3CCN(CC(=O)N4CC(O)C4)CC3)cn2c1N(c1nc(-c2ccc(F)cc2)c(C#N)s1)C1CC1 [Embodiment 24, 2-(cyclopropyl(6-ethyl-2-(1-(2-(3-hydroxyazetidin-1-yl)-2-oxoethyl)piperidin-4-yl)imidazo[2,1-b]thiazol-5-yl)amino)-4-(4-fluorophenyl)thiazole-5-carbonitrile]	100 to 500	43	1170	2.14	2520	2.23
CCc1nc2sc(C3CCN(CC(=O)N4CC(O)C4)CC3)cn2c1N(c1nc(-c2ccc(F)cc2)c(C#N)s1)C(C)C [Embodiment 25, 2-((6-ethyl-2-(1-(2-(3-hydroxyazetidin-1-yl)-2-oxoethyl)piperidin-4-yl)imidazo[2,1-b]thiazol-5-yl)(isopropyl)amino)-4-(4-fluorophenyl)thiazole-5-carbonitrile]	0.01 to 100	55	732	3.11	1900	3.83

The next lines start with the values.

IC50 (ATX) [nM]	F [1] [%]	AUC [1, 2] [ng·h/mL]	half-life [1, 2] [h]	AUC ([1]; Oral administration (5 mg/kg)) [ng·h/mL]	half-life ([1]; Oral administration (5 mg/kg)) [h]	SMILES
0.01 to 100	70	1670	4.18	5800	3.21	CCc1nc2sc(C3CCN(CC(=O)N4CC(O)C4)CC3)cn2c1N(CC)c1nc(-c2ccc(F)cc2)c(C#N)s1 [Embodiment 1, 2-(ethyl(6-ethyl-2-(1-(2-(3-hydroxyazetidin-1-yl)-2-oxoethyl)piperidin-4-yl)imidazo[2,1-b]thiazol-5-yl)amino)-4-(4-fluorophenyl)thiazole-5-carbonitrile]
0.01 to 100	54	972	2.84	2720	3.63	CCc1nc2sc(C3CCN(CC(=O)N4CC(O)C4)CC3)cn2c1N(CC1CC1)c1nc(-c2ccc(F)cc2)c(C#N)s1 [Embodiment 2, 2-(cyclopropylmethyl(6-ethyl-2-(1-(2-(3-hydroxyazetidin-1-yl)-2-oxoethyl)piperidin-4-yl)imidazo[2,1-b]thiazol-5-yl)amino)-4-(4-fluorophenyl) thiazole-5-carbonitrile]
0.01 to 100	114	1040	3.32	5500	2.61	CCc1nc2sc(C3CCN(CC(=O)NC4COC4)CC3)cn2c1N(CC)c1nc(-c2ccc(F)cc2)c(C#N)s1 [Embodiment 21, 2-(4-(5-((5-cyano-4-(4-fluorophenyl)thiazol-2-yl)(ethyl)amino)-6-ethylimidazo[2,1-b]thiazol-2-yl)piperidin-1-yl)-N-(3-oxacyclobutyl)acetamide]
0.01 to 100	39	649	4.56	1260	4.19	CCc1nc2sc(C3CCN(CC(=O)N4CCOCC4)CC3)cn2c1N(CC)c1nc(-c2ccc(F)cc2)c(C#N)s1 [Embodiment 22, 2-(ethyl(6-ethyl-2-(1-(2-morpholino-2-oxoethyl)piperidin-4-yl)imidazo[2,1-b]thiazol-5-yl)amino)-4-(4-fluorophenyl)thiazole-5-carbonitrile]
0.01 to 100	70	1180	4.18	4190	3.93	CCc1nc2sc(C3CCN(CC(=O)NC4CCOCC4)CC3)cn2c1N(CC)c1nc(-c2ccc(F)cc2)c(C#N)s1 [Embodiment 23, 2-(4-(5-((5-cyano-4-(4-fluorophenyl)thiazol-2-yl)(ethyl)amino)-6-ethylimidazo[2,1-b]thiazol-2-yl)piperidin-1-yl)-N-(tetrahydro-2H-pyran-4-yl)acetamide]
